# Laboratory results reported in ChEMBL document CHEMBL1148480, “Structure-activity studies of orexin a and orexin B at the human orexin 1 and orexin 2 receptors led to orexin 2 receptor selective and orexin 1 receptor preferring ligands” (J Med Chem, 2004).
# Starred links: 1 amine or outer side, 2 acyl side, 3 side chain; linkers in the order of their positions; H or OH if unused. Non-standard residues stand in square brackets, D forms with d. Residues, ends and D or L forms follow the SMILES beside them. Groups on a side chain read outwards from the residue. X2 = N=C(N)NCCC[C@@H](C(=O)[*:2])N(CCCCCC(=O)[C@H](CC(=O)O)N[*:3])[*:1]; pGlu = O=C1CC[C@@H](C(=O)O)N1
# Target: T1, Orexin receptor type 2 (Homo sapiens, UniProt O43614)
# T1 sequence (O43614 whole entry): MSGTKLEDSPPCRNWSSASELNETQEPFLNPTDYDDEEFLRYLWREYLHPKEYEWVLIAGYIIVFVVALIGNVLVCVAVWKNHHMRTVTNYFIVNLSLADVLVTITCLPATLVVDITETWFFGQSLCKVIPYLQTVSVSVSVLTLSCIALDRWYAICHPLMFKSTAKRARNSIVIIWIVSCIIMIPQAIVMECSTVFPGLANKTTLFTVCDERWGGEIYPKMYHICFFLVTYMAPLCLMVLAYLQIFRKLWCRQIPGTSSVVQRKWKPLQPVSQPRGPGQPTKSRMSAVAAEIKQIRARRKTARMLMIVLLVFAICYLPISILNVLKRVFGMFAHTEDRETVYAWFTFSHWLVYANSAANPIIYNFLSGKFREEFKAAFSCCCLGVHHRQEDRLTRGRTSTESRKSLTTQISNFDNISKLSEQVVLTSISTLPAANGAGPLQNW
# Assay: Effective agonist concentration to the human Orexin receptor type 2 was determined using the Xlfit program
# Assay type: functional
row,Compound,EC50
1,CC[C@H](C)[C@H](NC(=O)CNC(=O)[C@H](C)NC(=O)[C@H](C)NC(=O)[C@H](Cc1cnc[nH]1)NC(=O)[C@H](CC(N)=O)NC(=O)CNC(=O)[C@H](CO)NC(=O)[C@H](C)NC(=O)[C@H](CCC(N)=O)NC(=O)[C@H](CC(C)C)NC(=O)[C@H](CC(C)C)NC(=O)[C@H](CCCNC(=N)N)NC(=O)[C@H](CCC(N)=O)NC(=O)[C@@H]1CCCN1C(=O)[C@H](CCCNC(=N)N)NC(=O)CNC(=O)[C@H](CCC(N)=O)NC(=O)[C@H](CC(C)C)NC(=O)CN)C(=O)N[C@@H](CC(C)C)C(=O)N[C@H](C(=O)N[C@@H](CCSC)C(=O)O)[C@@H](C)O (H-GLQGRPQRLLQASGNHAAGILTM-OH),0.79 µM
2,CC[C@H](C)[C@H](NC(=O)CNC(=O)[C@H](C)NC(=O)[C@H](C)NC(=O)[C@H](Cc1c[nH]cn1)NC(=O)[C@H](CC(N)=O)NC(=O)CNC(=O)[C@H](CO)NC(=O)[C@H](C)NC(=O)[C@H](CCC(N)=O)NC(=O)[C@H](CC(C)C)NC(=O)[C@H](CC(C)C)NC(=O)[C@H](CCCN=C(N)N)NC(=O)[C@@H]1CCCN1C(=O)[C@H](CC(C)C)NC(=O)[C@H](CCCN=C(N)N)NC(=O)CNC(=O)[C@H](CCC(N)=O)NC(=O)[C@H](CC(C)C)NC(=O)CN)C(=O)N[C@@H](CC(C)C)C(=O)N[C@H](C(=O)N[C@@H](CCSC)C(=O)O)[C@@H](C)O (stereo in doubt; form 2),0.36 µM
3,CC[C@H](C)[C@H](NC(=O)CNC(=O)[C@H](C)NC(=O)[C@H](C)NC(=O)[C@@H](N)Cc1cnc[nH]1)C(=O)N[C@@H](CC(C)C)C(=O)N[C@H](C(=O)N[C@@H](CC(C)C)C(=O)O)[C@@H](C)O (H-HAAGILTL-OH),> 1000 µM
4,CC[C@H](C)[C@H](NC(=O)CNC(=O)[C@H](C)NC(=O)[C@H](C)NC(=O)[C@H](Cc1c[nH]cn1)NC(=O)[C@H](CC(N)=O)NC(=O)CN)C(=O)N[C@@H](CC(C)C)C(=O)N[C@H](C(=O)N[C@@H](CC(C)C)C(=O)O)[C@@H](C)O (H-GNHAAGILTL-OH),> 1000 µM
5,CC[C@H](C)[C@H](NC(=O)CNC(=O)[C@H](C)NC(=O)[C@H](C)NC(=O)[C@H](Cc1cnc[nH]1)NC(=O)[C@H](CC(N)=O)NC(=O)CNC(=O)[C@H](CO)NC(=O)[C@H](C)NC(=O)[C@H](CCC(N)=O)NC(=O)[C@H](CC(C)C)NC(=O)[C@H](CC(C)C)NC(=O)[C@H](CCCNC(=N)N)NC(=O)[C@H](CCC(N)=O)NC(=O)[C@H](CC(C)C)NC(=O)[C@H](CCCNC(=N)N)NC(=O)CNC(=O)[C@@H](N)CCC(N)=O)C(=O)N[C@@H](CC(C)C)C(=O)N[C@H](C(=O)N[C@@H](CCSC)C(=O)O)[C@@H](C)O (H-QGRLQRLLQASGNHAAGILTM-OH),1.22 µM
6,CC[C@H](C)[C@H](NC(=O)CNC(=O)[C@H](C)NC(=O)[C@H](C)NC(=O)[C@H](Cc1cnc[nH]1)NC(=O)[C@H](CC(N)=O)NC(=O)CNC(=O)[C@H](CO)NC(=O)[C@H](C)NC(=O)[C@H](CCC(N)=O)NC(=O)[C@H](CC(C)C)NC(=O)[C@@H](N)CC(C)C)C(=O)N[C@@H](CC(C)C)C(=O)N[C@H](C(=O)N[C@@H](CCSC)C(=O)O)[C@@H](C)O (H-LLQASGNHAAGILTM-OH),> 1000 µM
7,CC[C@H](C)[C@H](NC(=O)[C@H](Cc1cnc[nH]1)NC(=O)[C@H](CC(N)=O)NC(=O)CNC(=O)[C@H](CO)NC(=O)[C@H](C)NC(=O)[C@H](CCC(N)=O)NC(=O)[C@H](CC(C)C)NC(=O)[C@H](CC(C)C)NC(=O)[C@H](CCCNC(=N)N)NC(=O)[C@H](CCC(N)=O)NC(=O)[C@H](CC(C)C)NC(=O)[C@H](CCCNC(=N)N)NC(=O)CNC(=O)[C@H](CCC(N)=O)NC(=O)[C@H](CC(C)C)NC(=O)CN)C(=O)N[C@@H](C)C(=O)NCC(=O)N[C@@H](C)C(=O)N[C@@H](CC(C)C)C(=O)N[C@H](C(=O)N[C@@H](CCSC)C(=O)O)[C@@H](C)O,3.15 µM
8,CC[C@H](C)[C@H](NC(=O)CNC(=O)[C@H](C)NC(=O)[C@H](C)NC(=O)[C@H](Cc1c[nH]cn1)NC(=O)[C@H](CC(N)=O)NC(=O)CNC(=O)[C@H](C)NC(=O)CNC(=O)[C@H](Cc1c[nH]cn1)NC(=O)[C@H](CC(C)C)NC(=O)[C@@H](N)CC(C)C)C(=O)N[C@@H](CC(C)C)C(=O)N[C@H](C(=O)N[C@@H](CC(C)C)C(=O)O)[C@@H](C)O (H-LLHGAGNHAAGILTL-OH),> 1000 µM
9,CC[C@H](C)[C@H](NC(=O)CNC(=O)[C@H](C)NC(=O)[C@H](C)NC(=O)[C@H](Cc1cnc[nH]1)NC(=O)[C@H](CC(N)=O)NC(=O)CNC(=O)[C@H](C)NC(=O)CNC(=O)[C@H](Cc1cnc[nH]1)NC(=O)[C@H](CC(C)C)NC(=O)[C@H](CC(C)C)NC(=O)[C@H](CCC(=O)O)NC(=O)[C@H](Cc1ccc(O)cc1)NC(=O)[C@H](CC(C)C)NC(=O)[C@H](CCCNC(=N)N)NCCCCCC(=O)[C@H](CC(=O)O)NC(=O)[C@@H]1CCCN1C(=O)[C@H](CC(C)C)NC(=O)[C@@H]1CCCN1C(=O)[C@@H]1CCC(=O)N1)C(=O)N[C@@H](CC(C)C)C(=O)N[C@H](C(=O)N[C@@H](CC(C)C)C(=O)O)[C@@H](C)O (H-[X2]([Pro-Leu-Pro-pGlu])LYELLHGAGNHAAGILTL-OH),0.64 µM

# Results, then the compound that gave them:
row,EC50,Compound
1,0.38 µM,CC[C@H](C)[C@H](NC(=O)CNC(=O)[C@H](C)NC(=O)[C@H](C)NC(=O)[C@H](Cc1cnc[nH]1)NC(=O)[C@H](CC(N)=O)NC(=O)CNC(=O)[C@H](C)NC(=O)CNC(=O)[C@H](Cc1cnc[nH]1)NC(=O)[C@H](CC(C)C)NC(=O)[C@H](CC(C)C)NC(=O)[C@H](CCC(=O)O)NC(=O)[C@H](Cc1ccc(O)cc1)NC(=O)[C@H](CC(C)C)NC(=O)[C@H](CCCNC(=N)N)NC(=O)[C@H](CS)NC(=O)[C@H](CO)NC(=O)[C@H](CS)NC(=O)[C@@H](N)[C@@H](C)O)C(=O)N[C@@H](CC(C)C)C(=O)N[C@H](C(=O)N[C@@H](CC(C)C)C(=O)O)[C@@H](C)O (H-TCSCRLYELLHGAGNHAAGILTL-OH)
2,0.06 µM,CC[C@H](C)[C@H](NC(=O)CNC(=O)[C@H](C)NC(=O)[C@H](C)NC(=O)[C@H](Cc1cnc[nH]1)NC(=O)[C@H](CC(N)=O)NC(=O)CNC(=O)[C@H](CO)NC(=O)[C@H](C)NC(=O)[C@H](CCC(N)=O)NC(=O)[C@H](CC(C)C)NC(=O)[C@H](CC(C)C)NC(=O)[C@H](CCCNC(=N)N)NC(=O)[C@H](CCC(N)=O)NC(=O)[C@H](CC(C)C)NC(=O)[C@H](CCCNC(=N)N)NC(=O)CNC(=O)[C@H](CCC(N)=O)NC(=O)[C@@H]1CCCN1C(=O)CN)C(=O)N[C@@H](CC(C)C)C(=O)N[C@H](C(=O)N[C@@H](CCSC)C(=O)O)[C@@H](C)O (H-GPQGRLQRLLQASGNHAAGILTM-OH)
3,0.24 µM,CC[C@H](C)[C@H](NC(=O)CNC(=O)[C@H](C)NC(=O)[C@H](C)NC(=O)[C@H](Cc1cnc[nH]1)NC(=O)[C@H](CC(N)=O)NC(=O)CNC(=O)[C@H](CO)NC(=O)[C@H](C)NC(=O)[C@H](CCC(N)=O)NC(=O)[C@H](CC(C)C)NC(=O)[C@H](CC(C)C)NC(=O)[C@H](CCCNC(=N)N)NC(=O)[C@H](CCC(N)=O)NC(=O)[C@H](CC(C)C)NC(=O)[C@H](CCCNC(=N)N)NC(=O)CNC(=O)[C@H](C)NC(=O)[C@H](CC(C)C)NC(=O)CN)C(=O)N[C@@H](CC(C)C)C(=O)N[C@H](C(=O)N[C@@H](CCSC)C(=O)O)[C@@H](C)O (H-GLAGRLQRLLQASGNHAAGILTM-OH)
4,0.68 µM,CC[C@H](C)[C@H](NC(=O)CNC(=O)[C@H](C)NC(=O)[C@H](C)NC(=O)[C@H](Cc1cnc[nH]1)NC(=O)[C@H](CC(N)=O)NC(=O)CNC(=O)[C@H](CO)NC(=O)[C@H](C)NC(=O)[C@H](CCC(N)=O)NC(=O)[C@H](CC(C)C)NC(=O)[C@H](CC(C)C)NC(=O)[C@@H]1CCCN1C(=O)[C@H](CCC(N)=O)NC(=O)[C@H](CC(C)C)NC(=O)[C@H](CCCNC(=N)N)NC(=O)CNC(=O)[C@H](CCC(N)=O)NC(=O)[C@H](CC(C)C)NC(=O)CN)C(=O)N[C@@H](CC(C)C)C(=O)N[C@H](C(=O)N[C@@H](CCSC)C(=O)O)[C@@H](C)O (H-GLQGRLQPLLQASGNHAAGILTM-OH)
5,0.28 µM,CC[C@H](C)[C@H](NC(=O)CNC(=O)[C@H](C)NC(=O)[C@H](C)NC(=O)[C@H](Cc1c[nH]cn1)NC(=O)[C@H](CC(N)=O)NC(=O)CNC(=O)[C@H](CO)NC(=O)[C@H](C)NC(=O)[C@H](CCC(N)=O)NC(=O)[C@H](CC(C)C)NC(=O)[C@H](CC(C)C)NC(=O)[C@H](CCCN=C(N)N)NC(=O)[C@@H]1CCCN1C(=O)[C@H](CC(C)C)NC(=O)[C@H](CCCN=C(N)N)NC(=O)CNC(=O)[C@H](CCC(N)=O)NC(=O)[C@H](CC(C)C)NC(=O)CN)C(=O)N[C@@H](CC(C)C)C(=O)N[C@H](C(=O)N[C@@H](CCSC)C(=O)O)[C@@H](C)O (stereo in doubt; form 1)

# Target: T2, Orexin/Hypocretin receptor type 1 (Homo sapiens, UniProt O43613)
# T2 sequence (O43613 whole entry): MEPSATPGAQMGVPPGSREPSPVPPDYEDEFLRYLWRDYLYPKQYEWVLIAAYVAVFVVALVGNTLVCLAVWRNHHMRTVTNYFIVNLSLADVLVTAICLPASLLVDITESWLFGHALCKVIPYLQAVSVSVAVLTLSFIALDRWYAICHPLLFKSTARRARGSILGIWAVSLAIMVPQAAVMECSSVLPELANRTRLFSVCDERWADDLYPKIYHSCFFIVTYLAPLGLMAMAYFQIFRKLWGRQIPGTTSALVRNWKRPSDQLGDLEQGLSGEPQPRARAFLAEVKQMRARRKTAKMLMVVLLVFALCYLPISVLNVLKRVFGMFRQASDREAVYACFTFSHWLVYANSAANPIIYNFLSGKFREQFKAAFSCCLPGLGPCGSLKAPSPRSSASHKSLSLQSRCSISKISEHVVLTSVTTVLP
# Assay: Effective agonist concentration to human orexin receptor type 1 determined using the Xlfit program
# Assay type: functional
row,EC50,Compound
1,1.21 µM,CC[C@H](C)[C@H](NC(=O)CNC(=O)[C@H](C)NC(=O)[C@H](C)NC(=O)[C@H](Cc1cnc[nH]1)NC(=O)[C@H](CC(N)=O)NC(=O)CNC(=O)[C@H](C)NC(=O)CNC(=O)[C@H](Cc1cnc[nH]1)NC(=O)[C@H](CC(C)C)NC(=O)[C@H](CC(C)C)NC(=O)[C@H](CCC(=O)O)NC(=O)[C@H](Cc1ccc(O)cc1)NC(=O)[C@H](CC(C)C)NC(=O)[C@H](CCCNC(=N)N)NC(=O)[C@H](CS)NC(=O)[C@H](CO)NC(=O)[C@H](CS)NC(=O)[C@@H](N)[C@@H](C)O)C(=O)N[C@@H](CC(C)C)C(=O)N[C@H](C(=O)N[C@@H](CC(C)C)C(=O)O)[C@@H](C)O (H-TCSCRLYELLHGAGNHAAGILTL-OH)
